The record followed here is US8501732B2, “Aminomethyl quinolone compounds” (Hoffmann-La Roche Inc., priority 2011, dated 2013).

pEC50, pIC50: −log10 of the molar value.

For one assay, the target named is JNK1 (Homo sapiens (Human), UniProt P45983). As to the kind of experiment: In Vitro JNK1 Assay (TR-FRET, phosphorylation of GST-c-Jun). Type of assay: biochemical. The following applies: 0.2 nM active JNK1 kinase, 26.7 nM GST-c-Jun, 2 μM ATP, 30 min at room temperature. In outline: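 IC50 derived from percent inhibition across 10 serially diluted concentrations, with TR-FRET detection of phospho-c-Jun via an anti-phospho-c-Jun antibody after EDTA stop. Substrate was GST-c-Jun 1-79, reacted 30 min at room temperature in pH 7.0 HEPES buffer with MgCl2, DTT, vanadate and BSA.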
JNK1, sequence (P45983 whole entry): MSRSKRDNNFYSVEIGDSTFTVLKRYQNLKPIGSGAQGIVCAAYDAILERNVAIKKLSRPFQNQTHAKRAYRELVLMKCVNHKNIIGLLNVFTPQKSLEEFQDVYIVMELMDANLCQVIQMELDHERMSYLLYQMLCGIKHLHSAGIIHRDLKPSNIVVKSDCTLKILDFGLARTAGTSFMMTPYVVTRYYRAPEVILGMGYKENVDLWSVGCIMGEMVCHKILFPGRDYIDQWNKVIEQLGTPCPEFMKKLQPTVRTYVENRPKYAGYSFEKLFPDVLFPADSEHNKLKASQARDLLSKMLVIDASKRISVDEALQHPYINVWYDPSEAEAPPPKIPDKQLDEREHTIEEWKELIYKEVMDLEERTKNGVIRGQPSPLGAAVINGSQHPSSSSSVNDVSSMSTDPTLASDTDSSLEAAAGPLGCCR
On the technique in general: In TR-FRET formats the signal depends on donor and acceptor labels being close together.

Assay [1] deals with phospho(Ser63)-c-jun in HK-2 cells. The assay can be described thus: Cell-Based Assay for JNK Inhibitors (in-cell ELISA, phospho(Ser63)-c-jun after TNFα). To be noted: HK-2 cells (human proximal tubule cells), 60 minutes compound, then 10 ng/mL TNFα for 30 minutes. In outline: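 HK-2 human proximal tubule cells were seeded at 40,000 cells/well, cultured 24 h, then serum-starved 16–24 h before TNFα stimulation with compound. Phospho(Ser63)-c-jun was quantified by in-cell ELISA on fixed, permeabilised cells, using a rabbit phospho-specific primary (overnight, 4 °C) and an HRP-linked anti-rabbit secondary. Absorbance was read at 450 nm.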
For orientation: In an ELISA, binding on a coated surface is turned into a signal by an enzyme label.

As to `COC(=O)c1c(CNC(=O)c2ccc(N3CCOCC3)nc2)c(=O)c2ccc(Cl)cc2n1-c1ccccc1` [Example I-112, 7-Chloro-3-{[(6-morpholin-4-yl-pyridine-3-carbonyl)-amino]-methyl}-4-oxo-1-phenyl-1,4-dihydro-quinoline-2-carboxylic acid methyl ester], the pIC50 against JNK1 was 8.22. In assay [1], this compound had a negative-log EC50 (pEC50) of 5.92.
Compound `COC(=O)c1c(CNC(=O)c2ccccc2)c(=O)c2ccccc2n1-c1ccccc1` [Example I-151, 3-(Benzoylamino-methyl)-4-oxo-1-phenyl-1,4-dihydro-quinoline-2-carboxylic acid methyl ester] had a pIC50 at JNK1 of 7.41. Moreover, the pEC50 in assay [1] is 4.85.
Compound `COC(=O)c1c(CNC(=O)c2ccc(OC)cc2)c(=O)c2ccc(OC)cc2n1-c1ccccc1` [Example I-164, 3-[(4-methoxy-benzoylamino)-methyl]-7-methoxy-4-oxo-1-phenyl-1,4-dihydro-quinoline-2-carboxylic acid methyl ester] showed a pIC50 against JNK1 of 7.27. Further, the pEC50 in assay [1] is 5.05.
The corresponding values for `COC(=O)c1c(CNC(=O)c2ccc(-c3nnn(C)n3)cc2)c(=O)c2ccc(Cl)cc2n1-c1ccccc1` [Example I-129, 7-Chloro-3-{[4-(2-methyl-2H-tetrazol-5-yl)-benzoylamino]-methyl}-4-oxo-1-phenyl-1,4-dihydro-quinoline-2-carboxylic acid methyl ester] are 7.30 and 4.96.
`COC(=O)c1c(CNC(=O)c2ccccc2F)c(=O)c2ccc(Cl)cc2n1-c1ccccc1` [Example I-145, 7-Chloro-3-[(2-fluoro-benzoylamino)-methyl]-4-oxo-1-phenyl-1,4-dihydro-quinoline-2-carboxylic acid methyl ester]: the negative logarithm of the IC50 (pIC50) against JNK1 is 7.19. Also, the pEC50 in assay [1] was 4.00.
The corresponding values for `COc1cccc(Cn2ccc(C(=O)NCc3cn(-c4ccccc4)c4cc(Cl)ccc4c3=O)cc2=O)c1` [Example I-38, 1-(3-Methoxy-benzyl)-2-oxo-1,2-dihydro-pyridine-4-carboxylic acid (7-chloro-4-oxo-1-phenyl-1,4-dihydro-quinolin-3-ylmethyl)-amide] are 7.14 and 4.80.
The corresponding values for `CN(C)c1ccc(C(=O)NCc2cn(-c3ccccc3)c3cc(Cl)ccc3c2=O)cn1` [Example I-79, N-(7-Chloro-4-oxo-1-phenyl-1,4-dihydro-quinolin-3-ylmethyl)-6-dimethylamino-nicotinamide] are 7.26 and 4.34.
At JNK1, `O=C(NCc1cn(-c2ccccc2)c2cc(Cl)ccc2c1=O)c1ccc(N2CCCCCC2)nc1` [Example I-68, 6-Azepan-1-yl-N-(7-chloro-4-oxo-1-phenyl-1,4-dihydro-quinolin-3-ylmethyl)-nicotinamide] gave a pIC50 of 7.68. The compound further had a pEC50 in assay [1] of 4.77.
Compound `O=C(NCc1cn(-c2ccccc2)c2cc(Cl)ccc2c1=O)c1ccc(NC2CCOCC2)nc1` [Example I-78, N-(7-Chloro-4-oxo-1-phenyl-1,4-dihydro-quinolin-3-ylmethyl)-6-(tetrahydro-pyran-4-ylamino)-nicotinamide] gave a pIC50 at JNK1 of 7.31. Further, the pEC50 in assay [1] was 4.66.
`CNC(=O)C1CCN(c2ccc(C(=O)NCc3cn(-c4ccccc4)c4cc(Cl)ccc4c3=O)cn2)CC1` [Example I-72, 3,4,5,6-Tetrahydro-2H-[1,2′]bipyridinyl-4,5′-dicarboxylic acid 5′-[(7-chloro-4-oxo-1-phenyl-1,4-dihydro-quinolin-3-ylmethyl)-amide]-4-methylamide] gave a negative-log IC50 (pIC50) on JNK1 of 7.57. Further, the pEC50 in assay [1] is 4.00.
`O=C(NCc1cn(-c2ccccc2)c2cc(Cl)ccc2c1=O)c1cnc(N2CCOCC2)s1` [Example I-96, 2-Morpholin-4-yl-thiazole-5-carboxylic acid (7-chloro-4-oxo-1-phenyl-1,4-dihydro-quinolin-3-ylmethyl)-amide]: on JNK1, the pIC50 was 7.26. In assay [1], this compound showed a pEC50 of 4.00.
As for `CN(C)C(=O)c1c(CNC(=O)c2cnc(N3CCC(CO)CC3)s2)c(=O)c2ccc(Cl)cc2n1-c1ccccc1` [Example I-26], the pIC50 against JNK1 is 7.01. This compound gave a pEC50 in assay [1] of 4.85.
`COC(=O)c1c(CNC(=O)c2cccnc2)c(=O)c2ccc(Cl)cc2n1-c1ccccc1` [Example I-139, 7-Chloro-4-oxo-1-phenyl-3-{[(pyridine-3-carbonyl)-amino]-methyl}-1,4-dihydro-quinoline-2-carboxylic acid methyl ester] had a pIC50 against JNK1 of 7.89. This compound showed a pEC50 in assay [1] of 5.01.
On JNK1, `COC(=O)c1c(CNC(=O)c2ccc(Cl)nc2)c(=O)c2ccc(F)cc2n1-c1ccccc1` [Example I-170, 3-{[(6-Chloro-pyridine-3-carbonyl)-amino]-methyl}-7-fluoro-4-oxo-1-phenyl-1,4-dihydroquinoline-2-carboxylic acid methyl ester] showed a pIC50 of 8.00. In addition, the pEC50 in assay [1] was 4.36.
At JNK1, `CN(C)C1CCN(c2ccc(C(=O)NCc3cn(-c4ccccc4)c4cc(Cl)ccc4c3=O)cn2)CC1` [Example I-75, 4-Dimethylamino-3,4,5,6-tetrahydro-2H-[1,2′]bipyridinyl-5′-carboxylic acid (7-chloro-4-oxo-1-phenyl-1,4-dihydro-quinolin-3-ylmethyl)-amide] had a pIC50 of 7.51. This compound had a pEC50 in assay [1] of 4.85.
In turn, `COC(=O)c1c(CNC(=O)c2ccc(Cl)cc2)c(=O)c2ccc(OC)cc2n1-c1ccccc1` [Example I-168, 3-[(4-Chloro-benzoylamino)-methyl]-7-methoxy-4-oxo-1-phenyl-1,4-dihydro-quinoline-2-carboxylic acid methyl ester] gave a pIC50 against JNK1 of 7.00. The pEC50 in assay [1] is 4.49.
For `O=C(NCc1cn(-c2ccccc2)c2cc(Cl)ccc2c1=O)c1ccc(C(=O)NC2C3CC4CC2CC(O)(C4)C3)cc1` (stereo not shown) [Example I-99, N-(7-Chloro-4-oxo-1-phenyl-1,4-dihydro-quinolin-3-ylmethyl)-N′-(5-hydroxy-adamantan-2-yl)-terephthalamide], the pIC50 against JNK1 was 7.28. Further, the pEC50 in assay [1] is 5.21.

As usually defined, the pIC50 is the negative decadic logarithm of the IC50, by convention in mol/L. As a reminder, the pEC50 is the EC50 on a negative log10 scale, so that one unit is a factor of ten. A higher pEC50 goes with a low EC50.
